Holding throughout (format): biochemical, bovine
Test [1] has as its target T1, farnesyl-protein transferase (Bos taurus, UniProt P29702+P49355).
T1 construct: partially pure bovine brain farnesyl-protein transferase; from tissue; host or cells: bovine brain (cerebral lobes)
Kind of test: Inhibition of Ras farnesylation in vitro. The following applies: Ras-CVLS at 3.5 µM, 0.25 µM [³H]FPP, partially purified enzyme; average of 2-5 determinations; read-out: IC₅₀. As for the experimental part:
Polyisoprenylation of Ras- [³H]Farnesyl diphosphate (FPP) (20 Ci/mmol) was purchased from New England Nuclear. Farnesyl-protein transferase activity assays were carried out at 30°C unless noted otherwise. A typical reaction contained (in a final volume of 50 µl):[³H]farnesyl diphosphate, Ras protein (3.5µM), 50 mM HEPES, pH 7.5, 5 mM MgCl₂ 5 mM dithiothreitol and farnesyl-protein transferase. After thermally pre-equilibrating the assay mixture in the absence of enzyme, reactions were initiated by the addition of farnesyl-protein transferase and stopped at timed intervals by the addition of 1M HCl in ethanol (1 mL). The quenched reactions were allowed to stand for 15 minutes (to complete the precipitation process). After adding 2 mL of 100% ethanol, the reactions were vacuum-filtered through Whatmann GF/C filters. Filters were washed four time with 2 mL aliquots of 100% ethanol, mixed with scintillation fluid (10 mL) and then counted in a Beckmann LS3801 scintillation couter.
For inhibition studies, assays were run as described above, except putative inhibitors were added at the concentration indicated, IC₅₀ values were determined with both farnesyl-protein transferase substrates at their KM concentrations. The KM for Ras protein substrate having the CAAX sequence, CVLS, is 3.5 µM and the KM for FPP is 0.25µM.
Ras proteins used as substrates were expressed in E. coli and purified. […]

Test [2] concerns the target T1, farnesyl-protein transferase. Kind of test: Tetrapeptides tested as farnesylation substrates (TLC / autoradiography). The conditions noted are these: for Farnesylation Substrate: peptide 200 µM, partially pure bovine farnesyl-protein transferase, 0.5 µM [3H] FPP, 30 min. at 30°C. An excerpt: When a peptide was used as the acceptor substrate, there were two changes to the assay: (1) Ras protein was excluded and, (2) the reactions were stopped by the additon of one tenth volume of 0.5 M EDTA. A portion of the reaction mixture was spotted onto a TLC plate (silica gel 60 thin layer chromatography plates (20 cm x 20 cm, 0.25 mm layer thickness) were from E. Merck (Darrnstadt) and eluted with either ethyl acetate:pyridine: acetic acid:water (10:5:1:3) or n-propanol:water (7:3) elution systems. After drying under vacuum, the plates were sprayed with En³Hance and exposed to X-ray film at -70°C.
CAAX tetrapeptides and other tetrapeptides including Cys-Xaa¹-Xaa²-Xaa³-NRR¹ were tested as farnesylation substrates using [³H]FPP and partially pure bovine brain farnesyl-protein transferase. […] Thin layer chromatography (TLC) conditions were developed which resolved the substrates farnesyl diphosphate (Rf = 0.06) and CVLS (Rf = 0.28) and product S-farnesyl-CVLS (Rf = 0.58). These Rf values reflect TLC conditions using ethylacetate:pyridine: acetic acid:water (10:5:1:3) as the eluent. In another elution system, n-propanol:water (7:3), farnesyl-diphosphate (Rf= 0.18) was readily seperated from farnesylated tetrapeptides (examples: CAIS (Rf=0.84) and CAIM (Rf=0.83)). Quenched reaction mixtures containing peptide, farnesyl-diphosphate and farnesyl-protein transferase were separated by TLC followed by visualization of the radioactive species by autoradiography. […] Control peptides having a Cys to Ser substitution were not substrates.
The indicated peptides at 200 µM were incubated with partially pure bovine farnesyl-protein transferase and 0.5 µM [3H] FPP for 30 min. at 30°C. Autoradiographic exposure time was overnight (15-20 hr).

For test [3] the target is unchanged. Kind of test: Mechanism of inhibition using homogenous, pure farnesyl-protein transferase. As for the experimental part: To prepare pure enzyme, the nonapeptide, […], was covalently bound to Affigel-10 under anhydrous conditions as described by the manufacturer (15 µmol peptide per 1 mL of Affigel-10). Unreacted resin was treated with ethanolamine. After multiple passes of ω-aminooctyl-agarose-column-purified protein over the peptide column, the column was washed and eluted as described by Reiss, et al., (1990) ibid, to recover farnesyl-protein transferase activity.

Structures are written as SMILES. pIC50: −log10 of the molar value. Where a SMILES comes first, the peptide text is derived from it.

In the case of `CSCC[C@H](NC(=O)[C@H](Cc1ccccc1)NC(=O)[C@@H](NC(=O)[C@@H](N)CS)C(C)C)C(N)=O` [CVFM-NH₂, Cys-Val-Phe-Met-NH₂] (H-CVFM-NH2), the pIC50 in test [1] was 5.64. Besides, the “Farnesylation Substrate” value in test [2] is reported as “- (< 1% conversion)”.

For `CC(C)C[C@H](NC(=O)[C@@H](NC(=O)[C@@H](N)CS)C(C)C)C(=O)N[C@@H](CO)C(N)=O` [CVLS-NH₂, Cys-Val-Leu-Ser-NH₂] (H-CVLS-NH2), the pIC50 in test [1] was 4.80. In test [2] ([³H]FPP, partially pure bovine brain farnesyl-protein transferase), the “farnesylation substrate (result in words, TLC autoradiography)” value is listed as “do not serve as effective substrates”. For the same compound, the “Farnesylation Substrate” value in test [2] is recorded as “- (< 1% conversion)”. In test [3], the “mechanism of inhibition with respect to Ras-CVLS protein substrate” value is recorded as “competitive inhibitor” and the “mechanism of inhibition with respect to farnesyl diphosphate” value is “not a competitive inhibitor”.
